Measured values taken from patent US20020147210A1, “Methods for delaying recurrence of herpes virus symptoms” (3M Innovative Properties Company, priority 2000, published 2002).

System: recurrent herpes genitalis (herpes virus)
Test: Randomized, double-blind vehicle-controlled clinical study of resiquimod gel formulations topically applied to herpetic lesions of the external genitalia
Assay type: in vivo, human
Conditions: topical, patients with recurrent herpes genitalis, 6 month observation period
Procedure: Propylene glycol (700 g) and resiquimod (4-amino-2-ethoxymethyl-α,α-dimethyl-1H-imidazo[4,5-c]quinoline-1-ethanol, 1.4 g) were added to a 1000 mL glass beaker. The resulting mixture was heated (about 55° C.) with stirring until all of the resiquimod was dissolved. The resulting solution was added to the mixing bowl of a ROSS LDM-4 mixer. Triacetin (11,968.7 g) was added to the mixing bowl and the resulting mixture was mixed for 10 minutes at 36 rpm. Colloidal silicon dioxide (1,330.0 g, AEROSIL®200 from Degussa, Frankfurt, Germany) was added in five parts. After each addition the resulting mixture was mixed at ambient pressure for 1 to 2 minutes at 36 rpm and then under vacuum (18 inches of Hg below ambient pressure, […]) for about 9 minutes at 36 rpm. The sides of the mixing bowl and the mixing blades were scraped. The formulation was mixed under vacuum (17 inches of Hg below ambient pressure, […]) for about 10 minutes at 36 rpm. The resulting gel contained 0.01% resiquimod, 5.0% propylene glycol, 9.5% colloidal silicon dioxide, and 85.49% triacetin.
Using the method described above, a second formulation was prepared by combining 7.0 g of resiquimod, 700.0 g of propylene glycol, 11963.0 g of triacetin and 1,330.0 g of colloidal silicon dioxide. The resulting gel contained 0.05% resiquimod, 5.0% propylene glycol, 9.5% colloidal silicon dioxide, and 85.45% triacetin.
A randomized, double-blind vehicle (placebo)-controlled study was performed to evaluate single and multi-weekly doses of the resiquimod formulations prepared above topically applied to herpetic lesions on the skin of the external genitalia.
52 otherwise healthy patients (20 to 60 years of age, inclusive) with a history of recurrent herpes genitalis (≧6 episodes per year) participated in the study. […] After passing screening, patients were enrolled into a 12-week eligibility period to qualify for treatment by virtue of experiencing a herpetic recurrence. During the eligibility period patients' qualified for the treatment period by coming to the study site for treatment visit one within 24 hours of a recurrence. At this visit patients were stratified by sex and enrolled sequentially into an active treatment or vehicle treatment regimen.
The treatment period began with the first treatment visit and ended with the final treatment visit. The treatment groups were 0.05 percent resiquimod containing formulation or formulation alone (vehicle) 1×/week for 4 weeks; 0.05 percent resiquimod containing formulation or formulation alone 2×/week for 3 weeks; 0.01 percent resiquimod formulation or formulation alone 2×/week for 3 weeks; or 0.01 percent resiquimod formulation or formulation alone 3×/week for 3 weeks. […]

CCOCc1nc2c(N)nc3ccccc3c2n1CC(C)(C)O [Resiquimod, 4-amino-α,α-dimethyl-2-ethoxymethyl-1H-imidazo[4,5-c]quinoline-1-ethanol]
Median No. Days to Recurrence after treatment cessation (0.01% resiquimod gel, 2×/wk, 3 weeks): 172.5 days
Median No. Days to Recurrence after treatment cessation (0.01% resiquimod gel, 3×/wk, 3 weeks): >195 days
Median No. Days to Recurrence after treatment cessation (0.05% resiquimod gel, 1×/wk, 4 weeks): >60 days
Median No. Days to Recurrence after treatment cessation (0.05% resiquimod gel, 2×/wk, 3 weeks): 105 days
